Assay [1] concerns A549. Briefly: In vitro rate of inhibition of A-549 tumor cell growth at 10E-4 mol/L. Type of assay: functional, Homo sapiens. The following applies: at 100 µM.
The subject of assay [2] is A549. The experiment in a line: In vitro rate of inhibition of A-549 tumor cell growth at 10E-5 mol/L. Type of assay: functional, Homo sapiens. The following applies: at 10 µM.
Assay [3] deals with A549. The experiment in a line: In vitro rate of inhibition of A-549 tumor cell growth at 10E-7 mol/L. The conditions noted are these: at 0.1 µM. Type of assay: functional, Homo sapiens.
In assay [4] the test system is A549. Briefly: In vitro rate of inhibition of A-549 tumor cell growth at 10E-8 mol/L. Type of assay: functional, Homo sapiens. The conditions noted are these: at 0.01 µM.
Assay [5] has as its system P388. Briefly: In vitro rate of inhibition of P388 tumor cell growth at 10E-5 mol/L. Type of assay: functional, Mus musculus. The following applies: at 10 µM.
Assay [6] has as its system P388. The experiment in a line: In vitro rate of inhibition of P388 tumor cell growth at 10E-6 mol/L. Type of assay: functional, Mus musculus. The following applies: at 1 µM.
In assay [7] the test system is P388. The experiment in a line: In vitro rate of inhibition of P388 tumor cell growth at 10E-7 mol/L. The following applies: at 0.1 µM. Type of assay: functional, Mus musculus.
Assay [8] has as its system P388. Briefly: In vitro rate of inhibition of P388 tumor cell growth at 10E-8 mol/L. Type of assay: functional, Mus musculus. The following applies: at 0.01 µM.
For assay [9], the system named is A549. Briefly: In vitro rate of inhibition of A-549 tumor cell growth at 10E-6 mol/L. Type of assay: functional, Homo sapiens. The following applies: at 1 µM.
Assay [10] relates to P388. The experiment in a line: In vitro rate of inhibition of P388 tumor cell growth at 10E-4 mol/L. The following applies: at 100 µM. Type of assay: functional, Mus musculus.

For `CC1=NN(C(=O)Nc2ccccc2)C(C)=NN1C(=O)Nc1ccccc1`, the Rate of inhibition in the assay with A549 [1] came out at 76.5%; in the assay on A549 [2], 77.9%; with A549 [3] it was 60.3%; with A549 [4], 50%; with P388 [5] it was 90.6%; in the assay with P388 [6], 90.6%. The Rate of inhibition is 87.5% with P388 [7], 81.3% in the assay with P388 [8], 79.4% in the assay with A549 [9] and 89.1% with P388 [10].

Regarding `CCCC1=NNC(CCC)N=N1` (stereo not given), the Rate of inhibition in the assay on A549 [1] came out at 61.7%; in the assay with A549 [2], 0.5%; with A549 [3], 0%; with A549 [4] it was 0%; with P388 [5] it was 0%; with P388 [6] it was 0%. In addition, the Rate of inhibition with P388 [7] stood at 0%; in the assay on P388 [8], 0%; in the assay on A549 [9] it was 0%; in the assay with P388 [10], 42.2%.

With `Clc1cccc(-c2nnc(-c3cccc(Cl)c3)nn2)c1`, the Rate of inhibition in the assay on A549 [1] is given as 0%; in the assay on A549 [2], 0%; with A549 [3], 0%; in the assay on A549 [4], 0%; with P388 [5], 26.5%; in the assay on P388 [6] it was 33.2%. Further, the Rate of inhibition in the assay with P388 [7] turned out to be 13.5%; in the assay on P388 [8], 4.3%; with A549 [9], 0%; in the assay with P388 [10] it was 40.3%.

With `CCCC1=NN(C(=O)Nc2ccccc2)C(CCC)=NN1C(=O)Nc1ccccc1`, the Rate of inhibition in the assay on A549 [1] is recorded as 56.6%; in the assay with A549 [2], 78.3%; in the assay on A549 [3], 6.1%; with A549 [4], 2.5%; with P388 [5], 61.5%; with P388 [6], 22.8%. The Rate of inhibition is 4.4% in the assay with P388 [7], 4.1% in the assay with P388 [8], 48.3% in the assay on A549 [9] and 85.4% with P388 [10].

As for `CC(=O)N1NC(C)N(C(C)=O)NC1C` (stereo not given), the Rate of inhibition with A549 [1] is 68.5%; in the assay on A549 [2], 6%; in the assay with A549 [3], 7.4%; in the assay with A549 [4], 3.2%; in the assay on P388 [5], 0.1%; in the assay on P388 [6], 4.3%. Besides, the Rate of inhibition in the assay with P388 [7] is on record as 0%; in the assay with P388 [8] it was 0%; in the assay with A549 [9], 3.6%; in the assay with P388 [10] it was 14.5%.

Take `CC1=NNC(C)N=N1` (stereo not given): the Rate of inhibition with A549 [1] came out at 67.7%; in the assay on A549 [2], 4.8%; with A549 [3], 5.5%; with A549 [4], 0%; in the assay with P388 [5] it was 19.7%; in the assay with P388 [6] it was 9.2%. Besides, the Rate of inhibition in the assay on P388 [7] was 15.9%; with P388 [8] it was 0%; in the assay on A549 [9] it was 0%; in the assay with P388 [10], 100%.

Turning to `FC(F)(F)c1ccc(-c2nnc(-c3ccc(C(F)(F)F)cc3)nn2)cc1`, the Rate of inhibition in the assay on A549 [1] stood at 40.2%; with A549 [2], 2.5%; in the assay with A549 [3], 0%; in the assay on A549 [4] it was 0%; in the assay on P388 [5], 44.4%; in the assay with P388 [6], 33%. The Rate of inhibition in the assay with P388 [7] amounted to 19.5%; with P388 [8] it was 9.7%; with A549 [9], 0%; in the assay with P388 [10], 51.5%.

On to `CC1=NN(C(=O)Nc2cccc(Cl)c2)C(C)=NN1C(=O)Nc1cccc(Cl)c1`, for which the Rate of inhibition was determined as 21.2% in the assay with A549 [1]; 7.6% in the assay with A549 [2]; 0% in the assay on A549 [3]; 0% in the assay with A549 [4]; 29.7% in the assay on P388 [5]; 6.3% with P388 [6]. Besides, the Rate of inhibition stood at 0% in the assay with P388 [7], 0% in the assay on P388 [8], 0% with A549 [9] and 85.9% in the assay with P388 [10].

For `CC1=NN(C(=O)OCCC(C)C)C(C)N=N1` (stereo not given), the Rate of inhibition is reported as 0% with A549 [1]; 0% with A549 [2]; 0% in the assay with A549 [3]; 0% in the assay on A549 [4]; 17.8% with P388 [5]; 13.6% in the assay with P388 [6]. Moreover, the Rate of inhibition in the assay on P388 [7] is 0.8%; in the assay with P388 [8], 0%; with A549 [9], 0%; with P388 [10], 28.8%.

With `Clc1ccc(-c2nnc(-c3ccc(Cl)cc3)nn2)cc1`, the Rate of inhibition is given as 0% in the assay with A549 [1]; 0% in the assay on A549 [2]; 0% in the assay on A549 [3]; 0% in the assay on A549 [4]; 35.1% in the assay with P388 [5]; 29% with P388 [6]. Moreover, the Rate of inhibition in the assay with P388 [7] is reported as 19.4%; in the assay with P388 [8] it was 16.1%; with A549 [9], 0%; in the assay with P388 [10], 52.3%.

Turning to `CCCOC(=O)N1C(c2ccccc2)=NN=C(c2ccccc2)N1C(=O)OCCC`, the Rate of inhibition amounted to 23.4% in the assay on A549 [1]; 29.8% in the assay with A549 [2]; 0% in the assay on A549 [3]; 0% in the assay with A549 [4]; 54.8% with P388 [5]; 4.5% in the assay with P388 [6]. In addition, the Rate of inhibition with P388 [7] is on record as 4.3%; with P388 [8] it was 2.5%; with A549 [9], 0.5%; in the assay with P388 [10] it was 80.9%.

As for `CCCC1=NN(C(=O)OCCC(C)C)C(CCC)N=N1` (stereo not given), the Rate of inhibition came out at 89.4% with A549 [1]; 0% with A549 [2]; 0% in the assay with A549 [3]; 0% with A549 [4]; 14.3% in the assay on P388 [5]; 6.9% with P388 [6]. The Rate of inhibition in the assay on P388 [7] was found to be 7.3%; with P388 [8], 9.9%; in the assay with A549 [9] it was 0%; in the assay on P388 [10] it was 83.5%.

Take `Clc1ccccc1-c1nnc(-c2ccccc2Cl)nn1` [CLOFENTEZINE]: the Rate of inhibition is listed as 0% with A549 [1]; 0% with A549 [2]; 0% in the assay with A549 [3]; 0% in the assay on A549 [4]; 2.8% with P388 [5]; 5.6% in the assay on P388 [6]. The Rate of inhibition in the assay with P388 [7] is recorded as 14.6%; in the assay on P388 [8] it was 12.6%; with A549 [9], 0%; in the assay on P388 [10] it was 8.2%.

The record behind these values is ChEMBL document CHEMBL1147590, “Synthesis and antitumor activity of s-tetrazine derivatives” (Bioorg Med Chem Lett, 2004).
